Laboratory results: patent US8765678B2, “Inhibition of the renin-angiotensin system for the treatment of renal, vascular and cartilage pathology” (Mor Research Applications Ltd., priority 2005, dated 2014)
“Also recorded” adds a separate entry of the source.

Assays:
rats with PAN nephrosis [1] = experiment: Blood and urine tests in rats with PAN nephrosis; format: in vivo, rat; details: Wistar rats; PAN 75 mg/kg tail vein; enalapril 50 mg/L in drinking water from 3 days prior to PAN; blood day 10
Procedure: (§1) Animals and treatment regimen—Twenty-six male Wistar rats (Belinson, Israel, 220-260 gr each) were housed in individual metabolic cages, and allowed free access to a standard diet and water. Following an acclimatization period of 3 days, the rats were randomized into three groups: controls, puromycin aminonucleoside-treated (PAN-treated) and PAN+ enalapril treated. Six controls were injected with 0.9% NaCl, and 20 rats were injected with PAN (75 mg/kg, Sigma, St. Louis, Mo.) through the tail vein. Ten of the latter were treated with enalapril (Merck Research Laboratories, 50 mg/L) in their drinking water 3 days prior to PAN injection. On day 9, 24-hour urine collections were performed and the protein content was measured using the Beckman Array-Protein system. On day 10, rats were weighed and blood was collected for measurement of serum albumin, creatinine and cholesterol (Autoanalyzer, Hitachi, Japan). All animal experimentation was conducted according to the guidelines established by the Rabin Medical Center ethical committee for the Care and Use of Laboratory Animals

[2] = test system: GBM of nephrotic PAN rats; experiment: CCG binding to the GBM, electron microscopy histochemistry and morphometry; format: in vivo, rat; details: for CCG binding to the GBM (electron micrograph): PAN injected rat kidney, without or with enalapril treatment; for CCG binding, particles/μm^2 GBM (morphometric analysis): PAN rats, non-treated or enalapril-treated, control 67.3+5.6; for anionic GAG sites / preservation of GAGs in the GBM: nephrotic PAN rats
Procedure: as §1
Tissue preparation: The kidneys were removed rapidly and placed on ice and the cortices were separated from the medulla. Slices of each kidney were fixed in 0.5% glutaraldehyde in phosphate buffered saline (PBS), pH 7.4 for morphological and histochemical studies. For electron microscopy (EM), 1 mm^3 tissue blocks of GA-fixed kidneys were washed, dehydrated in ethanol, and embedded in LR-white resin (Polysciences, Wash. Pa.). For EM morphology, similar tissue blocks were post-fixed with 1% Osmium tetroxide (OsO4) in Veronal-acetate buffer, pH 7.4, for 1 hour at 4° C., dehydrated in ethanol and propylene oxide, and embedded in araldite (Polysciences).
Electron microscopy morphology and histochemistry: For EM morphology, ultrathin araldite sections were mounted on 400 mesh grids, stained with uranyl acetate and lead citrate, and coated with carbon. F or EM histochemistry, ultrathin LR-white sections were mounted on 200 mesh nickel grids, coated with formvar films and impregnated with carbon. Polycationic colloidal gold (CCG) was prepared by stabilization of colloidal gold, 12 nm with poly-L-lysine, as described by Weinstein et al., [J Am Soc Nephrol 8: 586-595, 1997]. The sections were stained with CCG, rinsed, and stained with saturated uranyl acetate in 50% ethanol. Examination of all sections was carried out using a JEOL-100B EM at 80 KV.
Morphometry: Analysis of the CCG labeling densities was performed in a blind manner on LR-white-embedded kidney tissue stained with CCG. Analysis was carried out by calculating the density of gold particles/1 μm^2 area of randomly cut membranes. Five rats from each group were studied. In each rat, 100 measurements from 10 glomeruli were performed. All measurements were carried out on digitized electron micrographs at a magnification of 5000, using the NIH-Image 1.49 program for the Macintosh.

rats with PAN nephrosis [3] = experiment: Electron microscopy morphology of kidney sections; format: in vivo; details: PAN injected rat kidney, without or with enalapril treatment
Procedure: as §1
Tissue preparation: The kidneys were removed rapidly and placed on ice and the cortices were separated from the medulla. Slices of each kidney were fixed in 0.5% glutaraldehyde in phosphate buffered saline (PBS), pH 7.4 for morphological and histochemical studies. […]

[4] = test system: Rat mesangial cells (RMC); experiment: Calorimetric assay of cell-associated GAGs; format: cell-based; details: for cell-associated GAGs: 36 hours
Procedure: (§2) Rat mesangial cells (RMC): RMC derived from Sprague-Dawley rats (#ATCC-mesangial-CRL-2573) were cultured in DMEM supplemented with 15% fetal calf serum (FCS) and antibiotics, according to ATCC instructions. Mesangial cells are derived from the glomerular interstitium of the kidney and thus serve as a valuable tool for the analysis of the GBM.
Calorimetric assay: Cell-associated GAGs were isolated from RMC by cetylpyridinium chloride (CPC, Sigma) precipitation, as described by (Nevo et al., 1972). Briefly, cells were rendered quiescent in 2% FCS for 24 hours (i.e., starvation conditions), then incubated in DMEM for 36 hours with PAN 40 μg/ml (Sigma), in the presence of increasing doses of enalaprilat [(E), the active form of enalapril], according to the following protocol: control, PAN, PAN+E 200 μg/ml, PAN+E 400 μg/ml, PAN+E 800 μg/ml. Following thorough rinsing in PBS, RMC were harvested using 0.05% trypsin/EDTA. Following addition of a buffer containing 0.1 M sodium acetate, 0.005 M EDTA (Sigma), 0.005 M cysteine (Sigma), and 0.1% papain (Sigma), pH 5.4, the mixtures were incubated for 48 hours at 65° C. and dialyzed for 24 hours against distilled water. NaCl was added to the dialysate to a final concentration of 30 mM, and mixed well. GAGs were precipitated by the addition of CPC to a final concentration of 0.5% and the solution was incubated overnight at 37° C. The precipitate was collected by centrifugation, dissolved in 2 M CaCl2, reprecipitated with ethanol:ether (2:1), collected by centrifugation and dried. GAGs were determined calorimetrically (uronic acid content×3.3=GAG content) using heparan sulfate as standard and expressed as μg GAGs/10^6 cells.

[5] = test system: Rat mesangial cells (RMC); experiment: Radioactive assay (^35S labeling) of cell-associated GAGs in RMC; format: cell-based; details: for cell-associated GAGs (^35S), % of control: RMC
Procedure: as §2
(§3) Radioactive assay (^35S labeling): Cells were grown to confluence, and were rendered quiescent in 2% FCS for 24 hours, following which they were transferred to serum-free medium plus one of the following additives: control, PAN 40 μg/ml, PAN+E 200 μg/ml, PAN+E 400 μg/ml, PAN+E 800 μg/ml, PAN+C10^−7M candesartan in the presence of 1 μCi/ml ^35S. Following 24 hours, medium was collected, cells were harvested by trypsinization, and aliquots obtained for cell and protein measurements. Cells were digested with papain as described, followed by extensive dialysis against water containing a non-radioactive sodium sulfate, until water contained less than 100 cpm/ml. Dialysate was transferred to Corex tubes and the same procedure was carried out as described for non-radioactive GAGs. Radioactivity was measured in a beta-counter.

[6] = test system: Human umbilical vein endothelial cells (HUVEC); experiment: Radioactive assay (^35S labeling) of cell-associated GAGs in endothelial cells; format: cell-based
Procedure: Endothelial cells: Human umbilical vein endothelial cells (HUVEC) were isolated by collagenase treatment. Cultures were established in M-199 medium containing 10% FCS, 25 μl/ml endothelial mitogen (Biomedical Technologies, Mass., USA) and antibiotics. HUVEC were passaged by treatment with 0.25% trypsin/0.02% EDTA, and passages 2-3 were used for experiments.
as §3

Chondrocytes = experiment: Radioactive assay (^35S labeling) of cell-associated GAGs in chondrocytes; format: cell-based
Procedure: Chondrocytes: Tissue bits from articular cartilage were incubated in-vitro and explant cell cultures were established as described [Nevo et al., 1972, Dev Biol 28: 219-228]. The cell cultures were assessed by immunohistochemistry.
as §3

[7] = test system: Osteoarthritic-induced rat; experiment: Osteoarthritis model of partial meniscectomy, intra-articular ACE-I gel; format: in vivo; details: rats, composite gel containing 5% captopril in the joint, 6 weeks
Source text: Osteoarthritis (OA) was induced in 32 rats using the model of partial meniscectomy of Rolli Moskowitz [Moskowitz, R W and Goldberg V M, J. Rheumatol. 1987 May; 14 Spec No:116-8; Moskowitz, R W et al., Ann Rheum Dis. 1981 December; 40(6):584-92]. The tissues of the control rats undergoing partial meniscectomy (8 rats) were immediately closed by suturing, while to the ACE-I treated group (24 rats), immediately following post partial meniscectomy, a composite gel containing ACE-I (5% captopril) was added prior to suturing the joint layers. After 6 weeks the animals were sacrificed. Prior to termination of the experiment a physical checkup ensured the degree of limping and movement limitation of the operated lower limb using an apparatus conducting a digital measurement of the degree of disability, translated to the pressure in grams activated by the operated limb, versus the healthy limb. Histological sections of the joint, femur and tibia, were prepared and stained with hematoxylin-eosin (H&E) as well as with Alcian blue at pH 2.5 and 1.0, and Masson's trichrome stain (Dako, Calif., U.S.A.). Together, these staining techniques assess proteoglycan content and extracellular matrix deposition.

[8] = test system: inflammatory arthritis in mice; details: Dalbeth et al., Rheumatology 44:24-31, 2004; cited from earlier work
[9] = chondrocytes pretreated with puromycin
[10] = chondrocytes, pretreatment with puromycin + enalaprilat 200 μg/ml

CN(C)c1ncnc2c1ncn2[C@@H]1O[C@H](CO)[C@@H](N)[C@H]1O [PAN, puromycin aminonucleoside]
serum creatinine (rats with PAN nephrosis [1]): 0.60 ± 0.01 mg/dL
CCG binding to the GBM (electron micrograph) [2]: marked decrease in CCG binding to the GBM
CCG binding, particles/μm^2 GBM (morphometric analysis) [2]: 39.1±1.0 particles/μm^2 GBM
anionic GAG sites / preservation of GAGs in the GBM [2]: decreased anionic GAG sites in the GBM
podocyte architecture (electron microscopy) (rats with PAN nephrosis [3]): loss of podocyte architecture in the glomeruli with flattening and effacement of foot processes
cell-associated GAGs ([4]; PAN 40 μg/ml, control 5.03+0.6): 2.35±0.54 μg GAGs/106 cells
cell-associated GAGs (^35S), % of control ([5]; PAN 40 μg/ml, 24 hours): 69%
cell associated GAGs (^35S), % of control ([6]; PAN 40 μg/ml): 81%
^35S-GAG cpm ± SD (Chondrocytes; [9]): 4333 ± 108 cpm
^35S-GAG, % of control culture (Chondrocytes; [9]): 68%

CCOc1nc2cccc(C(=O)O)c2n1Cc1ccc(-c2ccccc2-c2nnn[nH]2)cc1 [candesartan]
cell-associated GAGs (^35S), % of control ([5]; PAN + candesartan 10^−7 M (first column of that head, c3)): 76 ± 6.2%
cell-associated GAGs (^35S), % of control ([5]; PAN + candesartan 10^−7 M (second column of that head, c4)): 102%
cell associated GAGs (^35S), % of control ([6]; PAN + candesartan 10^−7 M): 107%

C[C@H](CS)C(=O)N1CCC[C@H]1C(=O)O [captopril]
OA manifestations [7]: only a mild initiation of OA, evident by minimal fibrillations and cell cloning; also recorded: slows down, and minimizes the OA manifestations
articular cartilage histology (cellularity, proteoglycans) [7]: highly cellular, with a dense presentation of proteoglycans

CCOC(=O)[C@H](CCc1ccccc1)N[C@@H](C)C(=O)N1CCC[C@H]1C(=O)O [enalapril]
serum cholesterol (rats with PAN nephrosis [1]): 91.7 ± 10.7 mg/dL
serum creatinine (rats with PAN nephrosis [1]): 0.60 ± 0.02 mg/dL
CCG binding to the GBM (electron micrograph) [2]: intense CCG binding similar to control
CCG binding, particles/μm^2 GBM (morphometric analysis) [2]: 56.0±5.5 particles/μm^2 GBM
anionic GAG sites / preservation of GAGs in the GBM [2]: beneficial effect on the preservation of GAGs in the GBM

C[C@H](N[C@@H](CCc1ccccc1)C(=O)O)C(=O)N1CCC[C@H]1C(=O)O [enalaprilat]
cell-associated GAGs ([4]; PAN 40 μg/ml + E 200 μg/ml): 2.43+0.42 μg GAGs/10^6 cells
cell-associated GAGs ([4]; PAN 40 μg/ml + E 400 μg/ml): 2.8+0.65 μg GAGs/10^6 cells
cell-associated GAGs ([4]; PAN 40 μg/ml + E 800 μg/ml): 5.3±0.43 μg GAGs/10^6 cells
GAG content, dose dependence ([4]; PAN 40 μg/ml + enalaprilat 200-800 μg/ml): dose-dependent rise in GAG content
cell-associated GAGs (^35S), % of control ([5]; PAN + enalaprilat 800 μg/ml): 80%
GAG synthesis (incorporation of ^35S), summary statement ([5]; cell type not given, in the presence of PAN): significantly increased GAG synthesis to control levels
cell associated GAGs (^35S), % of control ([6]; PAN + enalaprilat 800 μg/ml): 96%
^35S-GAG, % of control culture (Chondrocytes; chondrocytes, in the presence of enalaprilat 200 μg/ml, no puromycin): 108%
^35S-GAG cpm ± SD (Chondrocytes; chondrocytes, in the presence of enalaprilat 200 μg/ml, no puromycin, control culture 6331 ± 1075): 6820 ± 1651 cpm
^35S-GAG cpm ± SD (Chondrocytes; [10]): 9636 ± 1848 cpm
^35S-GAG, % of control culture (Chondrocytes; [10]): 152%

CCOC(=O)[C@H](CCc1ccccc1)N[C@@H](C)C(=O)N1Cc2ccccc2C[C@H]1C(=O)O [quinapril]
inflammatory arthritis / disease activity [8]: suppress inflammatory arthritis
